# Measured values published in the supplement of paper PMC10307832.
# How the values were obtained:
# Experiment in all cases: relative viability (nuclei count vs DMSO), 5 days (fraction); higher = more cells survive
# [1] = compound: C=CCNC1=C2C[C@@H](C)C[C@H](OC)[C@H](O)[C@@H](C)/C=C(\C)[C@H](OC(N)=O)[C@@H](OC)/C=C\C=C(/C)C(=O)NC(=CC1=O)C2=O [17-AAG]
# Procedure, shortened: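 Following overnight incubation at 37 °C, lung cancer cell lines in 1536-well plates were pinned with five library-drug doses (not always all listed) in √10 steps on vehicle-anchored plates. The cells then spent 5 days without medium change before a combined fix, permeabilisation and Hoechst stain, 4× imaging and MetaXpress nuclear counts. Viability is the treated-to-vehicle ratio of nuclei, taken as the median across plates. Only plates with control CV below 25% and at least one doubling passed.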
# [2] = compound: C=CCNC1=C2C[C@@H](C)C[C@H](OC)[C@H](O)[C@@H](C)/C=C(\C)[C@H](OC(N)=O)[C@@H](OC)/C=C\C=C(/C)C(=O)NC(=CC1=O)C2=O [17-AAG] + CC(C)C[C@H](NC(=O)[C@H](Cc1ccccc1)NC(=O)c1cnccn1)B(O)O [Bortezomib] (partner 0.002 µM)
# Procedure, shortened: (§1)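 The day after seeding in 1536-well plates, lung cancer cell lines were treated by pin tool with a single drug, or with a fixed anchor-drug dose together with five library-drug doses (not always all listed) in √10 steps. After 5 days, a combined fix-and-stain solution (final 0.05% Triton X-100, 1% formaldehyde, 1 ug/ml Hoechst) was added. Nuclei counted on 4× images gave relative viability as treated counts over vehicle counts, reported as the median of duplicate plates.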
# [3] = compound: C=CCNC1=C2C[C@@H](C)C[C@H](OC)[C@H](O)[C@@H](C)/C=C(\C)[C@H](OC(N)=O)[C@@H](OC)/C=C\C=C(/C)C(=O)NC(=CC1=O)C2=O [17-AAG] + CC1(C)CCC(c2ccc(Cl)cc2)=C(CN2CCN(c3ccc(C(=O)NS(=O)(=O)c4ccc(N[C@H](CCN5CCOCC5)CSc5ccccc5)c(S(=O)(=O)C(F)(F)F)c4)cc3)CC2)C1 [Navitoclax] (partner 0.5 µM)
# Procedure, shortened: as §1
# [4] = compound: C=CCNC1=C2C[C@@H](C)C[C@H](OC)[C@H](O)[C@@H](C)/C=C(\C)[C@H](OC(N)=O)[C@@H](OC)/C=C\C=C(/C)C(=O)NC(=CC1=O)C2=O [17-AAG] + COc1cc2c(Oc3ccc(NC(=O)C4(C(=O)Nc5ccc(F)cc5)CC4)cc3F)ccnc2cc1OCCCN1CCOCC1 [Foretinib] (partner 0.25 µM)
# Procedure, shortened: as §1
# [5] = compound: C=CCNC1=C2C[C@@H](C)C[C@H](OC)[C@H](O)[C@@H](C)/C=C(\C)[C@H](OC(N)=O)[C@@H](OC)/C=C\C=C(/C)C(=O)NC(=CC1=O)C2=O [17-AAG] + CS(=O)(=O)CCNCc1ccc(-c2ccc3ncnc(Nc4ccc(OCc5cccc(F)c5)c(Cl)c4)c3c2)o1 [Lapatinib] (partner 2 µM)
# Procedure, shortened: as §1
# [6] = compound: C=CCNC1=C2C[C@@H](C)C[C@H](OC)[C@H](O)[C@@H](C)/C=C(\C)[C@H](OC(N)=O)[C@@H](OC)/C=C\C=C(/C)C(=O)NC(=CC1=O)C2=O [17-AAG] + CS(=O)(=O)N1CCN(Cc2cc3nc(-c4cccc5[nH]ncc45)nc(N4CCOCC4)c3s2)CC1 [Pictilisib] (partner 1 µM)
# Procedure, shortened: as §1
# [7] = compound: C=CCNC1=C2C[C@@H](C)C[C@H](OC)[C@H](O)[C@@H](C)/C=C(\C)[C@H](OC(N)=O)[C@@H](OC)/C=C\C=C(/C)C(=O)NC(=CC1=O)C2=O [17-AAG] + C[C@@H](Oc1cc(-c2cnn(C3CCNCC3)c2)cnc1N)c1c(Cl)ccc(F)c1Cl [Crizotinib] (partner 1 µM)
# Procedure, shortened: as §1
# [8] = compound: C=CCNC1=C2C[C@@H](C)C[C@H](OC)[C@H](O)[C@@H](C)/C=C(\C)[C@H](OC(N)=O)[C@@H](OC)/C=C\C=C(/C)C(=O)NC(=CC1=O)C2=O [17-AAG] + C[C@]1(O)C[C@@H](c2nc(-c3ccc4ccc(-c5ccccc5)nc4c3)c3c(N)nccn32)C1 [Linsitinib] (partner 1 µM)
# Procedure, shortened: as §1
# [9] = compound: C=CCNC1=C2C[C@@H](C)C[C@H](OC)[C@H](O)[C@@H](C)/C=C(\C)[C@H](OC(N)=O)[C@@H](OC)/C=C\C=C(/C)C(=O)NC(=CC1=O)C2=O [17-AAG] + Cc1nc(NC(=O)N2CCC[C@H]2C(N)=O)sc1-c1ccnc(C(C)(C)C(F)(F)F)c1 [Alpelisib] (partner 2 µM)
# Procedure, shortened: as §1
# [10] = compound: C=CCNC1=C2C[C@@H](C)C[C@H](OC)[C@H](O)[C@@H](C)/C=C(\C)[C@H](OC(N)=O)[C@@H](OC)/C=C\C=C(/C)C(=O)NC(=CC1=O)C2=O [17-AAG] + O=C(c1cc(Cc2n[nH]c(=O)c3ccccc23)ccc1F)N1CCN(C(=O)C2CC2)CC1 [Olaparib] (partner 8 µM)
# Procedure, shortened: as §1
# [11] = compound: C=CCNC1=C2C[C@@H](C)C[C@H](OC)[C@H](O)[C@@H](C)/C=C(\C)[C@H](OC(N)=O)[C@@H](OC)/C=C\C=C(/C)C(=O)NC(=CC1=O)C2=O [17-AAG] + CCNC(=O)c1noc(-c2cc(C(C)C)c(O)cc2O)c1-c1ccc(CN2CCOCC2)cc1 [Luminespib] (partner 0.01 µM)
# Procedure, shortened: as §1
# [12] = compound: C=CCNC1=C2C[C@@H](C)C[C@H](OC)[C@H](O)[C@@H](C)/C=C(\C)[C@H](OC(N)=O)[C@@H](OC)/C=C\C=C(/C)C(=O)NC(=CC1=O)C2=O [17-AAG] + COc1cccc2cc(-c3nc([C@H]4CC[C@H](C(=O)O)CC4)n4ncnc(N)c34)[nH]c12 [OSI-027] (partner 0.5 µM)
# Procedure, shortened: as §1
# [13] = compound: C=CCNC1=C2C[C@@H](C)C[C@H](OC)[C@H](O)[C@@H](C)/C=C(\C)[C@H](OC(N)=O)[C@@H](OC)/C=C\C=C(/C)C(=O)NC(=CC1=O)C2=O [17-AAG] + Cc1cc(Nc2cc(N3CCN(C)CC3)nc(Sc3ccc(NC(=O)C4CC4)cc3)n2)n[nH]1 [Tozasertib] (partner 0.1 µM)
# Procedure, shortened: as §1
# [14] = compound: C=CCNC1=C2C[C@@H](C)C[C@H](OC)[C@H](O)[C@@H](C)/C=C(\C)[C@H](OC(N)=O)[C@@H](OC)/C=C\C=C(/C)C(=O)NC(=CC1=O)C2=O [17-AAG] + Cc1nc(Nc2ncc(C(=O)Nc3c(C)cccc3Cl)s2)cc(N2CCN(CCO)CC2)n1 [Dasatinib] (partner 0.075 µM)
# Procedure, shortened: as §1
# [15] = compound: C=CCNC1=C2C[C@@H](C)C[C@H](OC)[C@H](O)[C@@H](C)/C=C(\C)[C@H](OC(N)=O)[C@@H](OC)/C=C\C=C(/C)C(=O)NC(=CC1=O)C2=O [17-AAG] + N=C(N)NC(=N)NCCc1ccccc1 [Phenformin] (partner 250 µM)
# Procedure, shortened: as §1
cell line,measurement,setting,value
Calu-6,relative viability,[1]; 0.00128 µM,1.02
same,relative viability,[1]; 0.004048 µM,0.984
same,relative viability,[1]; 0.0128 µM,0.946
same,relative viability,[1]; 0.04048 µM,0.3
same,relative viability,[1]; 0.128 µM,0.148
same,relative viability,[2]; first compound 0.00128 µM,1.06
same,relative viability,[2]; first compound 0.004048 µM,0.92
same,relative viability,[2]; first compound 0.0128 µM,0.896
same,relative viability,[2]; first compound 0.04048 µM,0.317
same,relative viability,[2]; first compound 0.128 µM,0.183
same,relative viability,[3]; first compound 0.00128 µM,0.783
same,relative viability,[3]; first compound 0.004048 µM,0.735
same,relative viability,[3]; first compound 0.0128 µM,0.703
same,relative viability,[3]; first compound 0.04048 µM,0.197
same,relative viability,[3]; first compound 0.128 µM,0.122
same,relative viability,[4]; first compound 0.00128 µM,0.833
same,relative viability,[4]; first compound 0.004048 µM,0.899
same,relative viability,[4]; first compound 0.0128 µM,0.754
same,relative viability,[4]; first compound 0.04048 µM,0.249
same,relative viability,[4]; first compound 0.128 µM,0.121
same,relative viability,[5]; first compound 0.00128 µM,1.03
same,relative viability,[5]; first compound 0.004048 µM,1.01
same,relative viability,[5]; first compound 0.0128 µM,0.861
same,relative viability,[5]; first compound 0.04048 µM,0.323
same,relative viability,[5]; first compound 0.128 µM,0.135
same,relative viability,[6]; first compound 0.00128 µM,0.913
same,relative viability,[6]; first compound 0.004048 µM,0.867
same,relative viability,[6]; first compound 0.0128 µM,0.762
same,relative viability,[6]; first compound 0.04048 µM,0.199
same,relative viability,[6]; first compound 0.128 µM,0.133
same,relative viability,[7]; first compound 0.00128 µM,0.842
same,relative viability,[7]; first compound 0.004048 µM,0.77
same,relative viability,[7]; first compound 0.0128 µM,0.775
same,relative viability,[7]; first compound 0.04048 µM,0.202
same,relative viability,[7]; first compound 0.128 µM,0.109
same,relative viability,[8]; first compound 0.00128 µM,0.86
same,relative viability,[8]; first compound 0.004048 µM,0.977
same,relative viability,[8]; first compound 0.0128 µM,0.942
same,relative viability,[8]; first compound 0.04048 µM,0.353
same,relative viability,[8]; first compound 0.128 µM,0.146
same,relative viability,[9]; first compound 0.00128 µM,0.959
same,relative viability,[9]; first compound 0.004048 µM,0.928
same,relative viability,[9]; first compound 0.0128 µM,0.915
same,relative viability,[9]; first compound 0.04048 µM,0.363
same,relative viability,[9]; first compound 0.128 µM,0.188
same,relative viability,[10]; first compound 0.00128 µM,0.564
same,relative viability,[10]; first compound 0.004048 µM,0.571
same,relative viability,[10]; first compound 0.0128 µM,0.557
same,relative viability,[10]; first compound 0.04048 µM,0.184
same,relative viability,[10]; first compound 0.128 µM,0.124
NCI-H1623,relative viability,[1]; 0.00128 µM,0.978
same,relative viability,[1]; 0.004048 µM,0.919
same,relative viability,[1]; 0.0128 µM,0.755
same,relative viability,[1]; 0.04048 µM,0.31
same,relative viability,[1]; 0.128 µM,0.383
same,relative viability,[11]; first compound 0.00128 µM,0.555
same,relative viability,[11]; first compound 0.004048 µM,0.369
same,relative viability,[11]; first compound 0.0128 µM,0.283
same,relative viability,[11]; first compound 0.04048 µM,0.273
same,relative viability,[11]; first compound 0.128 µM,0.267
same,relative viability,[4]; first compound 0.00128 µM,0.87
same,relative viability,[4]; first compound 0.004048 µM,0.695
same,relative viability,[4]; first compound 0.0128 µM,0.491
same,relative viability,[4]; first compound 0.04048 µM,0.304
same,relative viability,[4]; first compound 0.128 µM,0.336
same,relative viability,[12]; first compound 0.00128 µM,0.475
same,relative viability,[12]; first compound 0.004048 µM,0.463
same,relative viability,[12]; first compound 0.0128 µM,0.33
same,relative viability,[12]; first compound 0.04048 µM,0.254
same,relative viability,[12]; first compound 0.128 µM,0.33
same,relative viability,[13]; first compound 0.00128 µM,0.412
same,relative viability,[13]; first compound 0.004048 µM,0.401
same,relative viability,[13]; first compound 0.0128 µM,0.497
same,relative viability,[13]; first compound 0.04048 µM,0.261
same,relative viability,[13]; first compound 0.128 µM,0.31
same,relative viability,[14]; first compound 0.00128 µM,0.625
same,relative viability,[14]; first compound 0.004048 µM,0.351
same,relative viability,[14]; first compound 0.0128 µM,0.284
same,relative viability,[14]; first compound 0.04048 µM,0.265
same,relative viability,[14]; first compound 0.128 µM,0.284
same,relative viability,[15]; first compound 0.00128 µM,0.614
same,relative viability,[15]; first compound 0.004048 µM,0.369
same,relative viability,[15]; first compound 0.0128 µM,0.323
same,relative viability,[15]; first compound 0.04048 µM,0.268
same,relative viability,[15]; first compound 0.128 µM,0.285
